Counter-ions that a name gives are not always drawn.
melting point | SMILES
138 °C | Cl.NS(=O)(=O)c1ccc(-n2nc(C(F)(F)F)cc2-c2ccc(-c3cncs3)cc2)cn1
157 °C | Cl.NS(=O)(=O)c1ccc(-n2nc(C(F)(F)F)c(Cl)c2-c2ccc(-c3cscn3)cc2)cn1
121 °C | Cl.NS(=O)(=O)c1ccc(-n2nc(C(F)(F)F)cc2-c2ccc(-c3cscn3)cc2)cn1
141 °C | CCc1c(-c2ccc(-c3cscn3)cc2)c(C(F)(F)F)nn1-c1ccc(S(N)(=O)=O)nc1.Cl
169 °C | CCc1c(C(F)(F)F)nn(-c2ccc(S(N)(=O)=O)nc2)c1-c1ccc(-c2cncs2)cc1.Cl
145 °C | Cl.NS(=O)(=O)c1ccc(-n2nc(C(F)(F)F)c(F)c2-c2ccc(-c3cscn3)cc2)cn1

Second part, the compound before the results:

SMILES | melting point
Cc1cc(-c2cc(C(F)(F)F)nn2-c2ccc(S(N)(=O)=O)cn2)ccc1-c1cscn1.Cl | 138 to 140 °C
NS(=O)(=O)c1ccc(-n2nc(C(F)(F)F)cc2-c2ccc(-c3ccco3)cc2)cn1 (as salt: hydrochloride) [Example 2, 5-[5-[4-(2-Furyl)phenyl]-3-(trifluoromethyl)-1H-pyrazol-1-yl]-2-pyridinesulfonamide] | 140 to 170 °C
NS(=O)(=O)c1ccc(-n2nc(C(F)(F)F)cc2-c2ccc(-c3ncco3)c(Cl)c2)cn1 (as salt: hydrochloride) [Example 3, 5-[5-[3-Chloro-4-(1,3-oxazol-2-yl)phenyl]-3-(trifluoromethyl)-1H-pyrazol-1-yl]-2-pyridinesulfonamide] | 156 °C
NS(=O)(=O)c1ccc(-n2nc(C(F)(F)F)c(Cl)c2-c2ccc(-c3cncs3)c(Cl)c2)cn1 (as salt: methanesulfonate) [Example 16, 5-[4-Chloro-5-[3-chloro-4-(1,3-thiazol-5-yl)phenyl]-3-trifluoromethyl-1H-pyrazol-1-yl]-2-pyridinesulfonamide] | 191 to 193 °C
NS(=O)(=O)c1ccc(-n2nc(C(F)(F)F)cc2-c2ccc(-c3cscn3)c(C(F)(F)F)c2)cn1 [Example 5, 5-{5-[4-(1,3-Thiazol-4-yl)-3-(trifluoromethyl)phenyl]-3-(trifluoromethyl)-1H-pyrazol-1-yl}-2-pyridinesulfonamide] | 114 °C

— US6951876B2, “Sulfamoylheteroaryl pyrazole compounds as anti-inflammatory/analgesic agents” (Pfizer, Inc., priority 1999, dated 2005)
